Source: patent publication US9681664B2, “Macrocyclic picolinamides as fungicides” (Dow Agrosciences LLC, priority 2012, dated 2017)
Read-outs that look alike come from different tables or passages of the source.

What was measured:
Format in all cases: in vivo
[1] = test system: Puccinia triticina; Synonym: Puccinia recondite f. sp. tritici; assay: Wheat brown rust (PUCCRT) disease control on wheat seedlings; conditions: for pest or weed control at 100 ppm / pest or weed control at 121.5 g/ha: Puccinia triticina; for pest or weed control at 121.5 g/ha: low volume application, 121.5 g/H; for pest or weed control at 100 ppm / PUCCRT 1DP disease control / PUCCRT 3DC disease control: 100 ppm
Outline: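 Acetone solutions diluted in nine volumes of water with 110 ppm Triton X-100 sprayed to run-off on first-leaf Yuma wheat seedlings (track spray: EC with 0.1% Trycol 5941). Puccinia triticina spores inoculated before or after treatment; overnight dark dew at 22° C., 100% RH, then greenhouse at 24° C. for disease development.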

[2] = test system: Mycosphaerella graminicola; Anamorph: Septoria tritici; assay: Leaf blotch of wheat (SEPTTR) disease control on wheat seedlings; conditions: for pest or weed control at 100 ppm / pest or weed control at 121.5 g/ha: Zymoseptoria tritici; for pest or weed control at 121.5 g/ha: low volume application, 121.5 g/H; for pest or weed control at 100 ppm / SEPTTR 1DP disease control / SEPTTR 3DC disease control: 100 ppm
Outline: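 Wheat seedlings (Yuma, first leaf emerged) sprayed to run-off with compound in acetone/water with 110 ppm Triton X-100, or track-sprayed as EC with 0.1% Trycol 5941. Septoria tritici spores inoculated before or after treatment. Dew chambers, then 20 °C greenhouse. Percent disease control derived from severity (0–100%) relative to untreated plants.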

Phakopsora pachyrhizi = assay: Asian soybean rust (PHAKPA) disease control; conditions: topical, high volume
Method: Technical grades of materials were dissolved in acetone, which were then mixed with nine volumes of water containing 0.011% Tween 20. The fungicide solutions were applied onto soybean seedlings using an automated booth sprayer to run-off. All sprayed plants were allowed to air dry prior to further handling.
Soybean plants (variety Williams 82) were grown in soil-less Metro mix, with one plant per pot. Two weeks old seedlings were used for testing. Plants were inoculated either 3 days prior to or 1 day after fungicide treatments. Plants were incubated for 24 h in a dark dew room at 22° C. and 100% RH then transferred to a growth room at 23° C. for disease to develop. Disease severity was assessed on the sprayed leaves.

[3] = 24 h, High volume application, 1 Day Protectant, read-out: PUCCRT 1DP disease control
[4] = 72 h, High volume application, 3 Day Curative, read-out: PUCCRT 3DC disease control
[5] = 24 h, High volume application, 1 Day Protectant, read-out: SEPTTR 1DP disease control
[6] = 72 h, High volume application, 3 Day Curative, read-out: SEPTTR 3DC disease control
[7] = 24 h, 1 Day Protectant, read-out: Disease Control PHAKPA 1DP
[8] = 72 h, 3 Day Curative, read-out: Disease Control PHAKPA 3DC
[9] = 24 h, Wheat Brown Rust, 1 Day Protectant, high volume application, read-out: Disease Control PUCCRT 1 DP 100 ppm
[10] = 72 h, Wheat Brown Rust, 3 Day Curative, high volume application, read-out: Disease Control PUCCRT 3 DC 100 ppm
[11] = 24 h, Wheat Leaf Blotch, 1 Day Protectant, high volume application, read-out: Disease Control SEPTTR 1 DP 100 ppm
[12] = 72 h, Wheat Leaf Blotch, 3 Day Curative, high volume application, read-out: Disease Control SEPTTR 3 DC 100 ppm
[13] = High volume application, 1 Day Protectant
[14] = High volume application, 3 Day Curative

| Molecule | pest or weed control at 25 ppm (Phakopsora pachyrhizi; [7]) | pest or weed control at 25 ppm (Phakopsora pachyrhizi; [8]) | pest or weed control at 100 ppm [1, 9] | pest or weed control at 100 ppm [1, 10] | pest or weed control at 100 ppm [2, 11] | pest or weed control at 100 ppm [2, 12] | PUCCRT 1DP disease control [1, 13] | PUCCRT 3DC disease control [1, 14] | SEPTTR 1DP disease control [2, 13] | SEPTTR 3DC disease control [2, 14] | also measured |
| --- | --- | --- | --- | --- | --- | --- | --- | --- | --- | --- | --- |
| CCCO[C@H]1[C@H](C)OC(=O)[C@@H](NC(=O)c2nccc(OC)c2OCOC(C)=O)CCC[C@@H]1Oc1ccccc1 [F95] | 80 to 100% | 80 to 100% | – | – | – | – | – | – | – | – | pest or weed control at 100 ppm [1, 3]: 80 to 100%; pest or weed control at 100 ppm [1, 4]: 80 to 100%; pest or weed control at 100 ppm [2, 5]: 80 to 100%; pest or weed control at 100 ppm [2, 6]: 80 to 100% |
| COc1ccnc(C(=O)N[C@H]2CCC[C@H](OCCCc3ccccc3)[C@@H](Oc3ccccc3)[C@H](C)OC2=O)c1OCOC(C)=O [F133] | 80 to 100% | 0 to 80% | – | – | – | – | – | – | – | – | pest or weed control at 100 ppm [1, 3]: 80 to 100%; pest or weed control at 100 ppm [1, 4]: 80 to 100%; pest or weed control at 100 ppm [2, 5]: 80 to 100%; pest or weed control at 100 ppm [2, 6]: 80 to 100% |
| COCCC(=O)Oc1c(OC)ccnc1C(=O)N[C@H]1CCC[C@H](Oc2ccccc2)[C@@H](OC(=O)C2CC2)[C@H](C)OC1=O [F243] | 80 to 100% | 0 to 80% | 80 to 100% | 80 to 100% | 80 to 100% | 80 to 100% | – | – | – | – | pest or weed control at 121.5 g/ha ([1]; 24 h, Wheat Brown Rust, 1 Day Protectant, read-out: Disease Control PUCCRT 1 DP 121.5 g/H): 80 to 100%; pest or weed control at 121.5 g/ha ([1]; 72 h, Wheat Brown Rust, 3 Day Curative, read-out: Disease Control PUCCRT 3 DC 121.5 g/H): 80 to 100%; pest or weed control at 121.5 g/ha ([2]; 24 h, Wheat Leaf Blotch, 1 Day Protectant, read-out: Disease Control SEPTTR 1 DP 121.5 g/H): 0 to 80%; pest or weed control at 121.5 g/ha ([2]; 72 h, Wheat Leaf Blotch, 3 Day Curative, read-out: Disease Control SEPTTR 3 DC 121.5 g/H): 80 to 100% |
| CCCOC(=O)O[C@H]1CCC[C@H](NC(=O)c2nccc(OC)c2O)C(=O)O[C@@H](C)[C@@H]1Oc1cc(C)cc(C)c1 [F290] | – | – | 80 to 100% | 80 to 100% | 0 to 80% | 0 to 80% | – | – | – | – | – |
| CCCOC(=O)O[C@H]1CCC[C@H](NC(=O)c2nccc(OC)c2OC(C)=O)C(=O)O[C@@H](C)[C@@H]1Oc1cc(C)cc(C)c1 [F291] | – | – | 80 to 100% | 0 to 80% | 80 to 100% | 80 to 100% | – | – | – | – | – |
| N-[(3S,7S,8S,9S)-7,8-dibenzyloxy-9-methyl-2-oxo-oxonan-3-yl]-3-hydroxy-4-methoxypyridine-2-carboxamide [F15] | – | – | – | – | – | – | A (80-100) | A (80-100) | A (80-100) | A (80-100) | – |
| [2-[[(3S,7S,8S,9S)-7-(cyclopentoxy)-9-methyl-2-oxo-8-propoxy-oxonan-3-yl]carbamoyl]-4-methoxy-3-pyridyl]3-methoxypropanoate [F19] | – | – | – | – | – | – | A (80-100) | A (80-100) | A (80-100) | A (80-100) | – |
| [2-[[(3S,7S,8S,9S)-8-isobutoxy-9-methyl-7-(2-methylallyloxy)-2-oxo-oxonan-3-yl]carbamoyl]-4-methoxy-3-pyridyl]acetate [F18] | – | – | – | – | – | – | A (80-100) | A (80-100) | A (80-100) | A (80-100) | – |
| [4-methoxy-2-[[(3S,7S,8S,9S)-9-methyl-7,8-bis(2-methylallyloxy)-2-oxo-oxonan-3-yl]carbamoyl]-3-pyridyl]oxymethyl acetate [F16] | – | – | – | – | – | – | A (80-100) | A (80-100) | A (80-100) | A (80-100) | – |
| [4-methoxy-2-[[(3S,7S,8S,9S)-9-methyl-7,8-bis(2-methylallyloxy)-2-oxo-oxonan-3-yl]carbamoyl]-3-pyridyl]oxymethyl-2-methylpropanoate [F17] | – | – | – | – | – | – | A (80-100) | A (80-100) | A (80-100) | A (80-100) | – |
